Each molecule was assayed against T1, human transferrin receptor (hTfR) (Homo sapiens, UniProt P02786) (assay: Evaluation of molecular interaction between transferrin receptor (hTfR) and peptide using surface plasmon resonance (SPR)). Details: surface plasmon resonance, binding to hTfR; KD class symbol; read-out: SPR (KD value).
T1 construct: made in house
T1 sequence (P02786 89-760 limits assumed): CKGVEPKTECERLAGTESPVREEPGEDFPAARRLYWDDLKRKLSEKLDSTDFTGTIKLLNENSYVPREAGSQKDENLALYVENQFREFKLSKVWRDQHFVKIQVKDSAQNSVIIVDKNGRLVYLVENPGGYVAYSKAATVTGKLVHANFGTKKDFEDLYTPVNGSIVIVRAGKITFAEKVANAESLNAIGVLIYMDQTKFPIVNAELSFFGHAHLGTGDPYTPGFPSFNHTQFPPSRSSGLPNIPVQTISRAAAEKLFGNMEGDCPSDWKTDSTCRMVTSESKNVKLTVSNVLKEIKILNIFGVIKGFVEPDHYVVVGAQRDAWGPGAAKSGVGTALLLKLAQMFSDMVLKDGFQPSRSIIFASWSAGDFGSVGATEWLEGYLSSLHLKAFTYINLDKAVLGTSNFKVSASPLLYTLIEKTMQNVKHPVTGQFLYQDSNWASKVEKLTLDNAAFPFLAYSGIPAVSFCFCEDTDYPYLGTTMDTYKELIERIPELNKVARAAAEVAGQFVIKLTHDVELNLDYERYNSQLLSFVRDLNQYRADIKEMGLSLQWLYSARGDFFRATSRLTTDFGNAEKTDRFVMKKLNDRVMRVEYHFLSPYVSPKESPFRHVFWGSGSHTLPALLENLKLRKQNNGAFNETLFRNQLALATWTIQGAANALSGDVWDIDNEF
Format: binding
Summary of the method: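 Recombinant human TfR dimer (0.5 μM) was captured on a Ni-charged NTA chip and amine-coupled with EDC/NHS, then ethanolamine-capped. Peptides at 5–100 nM in HEPES pH 8.0 buffer with 150 mM NaCl, 0.05% Tween 20, 0.1% BSA and 1.0% DMSO were run by single-cycle kinetics; KD came from least-squares curve fitting.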
In the case of CC[C@H](C)[C@@H]1NC(=O)[C@H](Cc2ccc(OC)cc2)NC(=O)[C@H](Cc2ccc(O)cc2)NC(=O)[C@H](CC(N)=O)NC(=O)[C@H](Cc2c[nH]c3ccc(Cl)cc23)NC(=O)[C@H](C(C)C)NC(=O)[C@H](Cc2ccc(F)cc2)N(C)C(=O)[C@H](C(C)C)NC(=O)[C@H](C)NC(=O)CSC[C@@H](C(=O)NCCOCCOCCOCCOCCC(N)=O)NC(=O)[C@H](Cc2ccc(O)cc2)N(C)C(=O)[C@H](Cc2ccccc2)NC(=O)[C@@H](CCCNC(=N)N)NC(=O)[C@H](CCCNC(=N)N)N(C)C(=O)[C@H]([C@@H](C)CC)NC1=O [compound 27], the Kd is reported as 1 to 100 nM. CC[C@H](C)[C@@H]1NC(=O)[C@H](Cc2ccc(O)cc2)NC(=O)[C@H](Cc2ccc(O)cc2)NC(=O)[C@H](CC(N)=O)NC(=O)[C@H](Cc2c[nH]c3ccccc23)N(C)C(=O)[C@H](C(C)C)NC(=O)[C@H](Cc2ccc(F)cc2)N(C)C(=O)[C@H](C(C)C)NC(=O)[C@H](C)NC(=O)CSC[C@@H](C(=O)NCCOCCOCCOCCOCCC(N)=O)NC(=O)[C@H](Cc2ccc(O)cc2)N(C)C(=O)[C@H](Cc2ccccc2)NC(=O)[C@@H](CCCNC(=N)N)NC(=O)[C@H](CCCNC(=N)N)NC(=O)[C@H]([C@@H](C)CC)NC1=O [compound 28] was tested, and the Kd was 1 to 100 nM. Molecule CC[C@H](C)[C@@H]1NC(=O)[C@H](Cc2ccc(OC)cc2)NC(=O)[C@H](Cc2ccc(O)cc2)NC(=O)[C@H](CC(N)=O)NC(=O)[C@H](Cc2c[nH]c3ccccc23)N(C)C(=O)[C@H](C(C)C)NC(=O)[C@H](Cc2ccc(F)cc2)N(C)C(=O)[C@H](C(C)C)NC(=O)[C@H](C)NC(=O)CSC[C@@H](C(=O)NCCOCCOCCOCCOCCC(N)=O)NC(=O)[C@H](Cc2ccc(O)cc2)N(C)C(=O)[C@H](Cc2ccccc2)NC(=O)[C@@H](CCCNC(=N)N)NC(=O)[C@H](CCCNC(=N)N)NC(=O)[C@H]([C@@H](C)CC)NC1=O [compound 29] has a Kd of 1 to 100 nM. CC[C@H](C)[C@@H]1NC(=O)[C@H](Cc2ccc(OC)cc2)NC(=O)[C@H](Cc2ccc(O)cc2)NC(=O)[C@H](CC(N)=O)NC(=O)[C@H](Cc2c[nH]c3ccccc23)N(C)C(=O)[C@H](C(C)C)NC(=O)[C@H](Cc2ccc(F)cc2)N(C)C(=O)[C@H](C(C)C)NC(=O)[C@H](C)NC(=O)CSC[C@@H](C(=O)NCCOCCOCCOCCOCCC(N)=O)NC(=O)[C@H](Cc2ccc(O)cc2)N(C)C(=O)[C@H](Cc2ccccc2)NC(=O)[C@@H](CCCNC(=N)N)NC(=O)[C@H](CCCNC(=N)N)N(C)C(=O)[C@H]([C@@H](C)CC)NC1=O [compound 30] gave a Kd of 1 to 100 nM. CC[C@H](C)[C@@H]1NC(=O)[C@H](Cc2ccc(OC)cc2)NC(=O)[C@H](Cc2ccc(O)cc2)NC(=O)[C@H](CC(N)=O)NC(=O)[C@H](Cc2c[nH]c3ccc(Cl)cc23)NC(=O)[C@H](C(C)C)NC(=O)[C@H](Cc2ccccc2)N(C)C(=O)[C@H](C(C)C)NC(=O)[C@H](C)NC(=O)CSC[C@@H](C(=O)NCCOCCOCCOCCOCCC(N)=O)NC(=O)[C@H](Cc2ccc(O)cc2)N(C)C(=O)[C@H](Cc2ccc(O)cc2)NC(=O)[C@H](CCCNC(=N)N)NC(=O)[C@H](CCCNC(=N)N)NC(=O)[C@H]([C@@H](C)CC)NC1=O [compound 37] was tested, and the Kd was under 1 nM. In the case of CC[C@H](C)[C@@H]1NC(=O)[C@H](Cc2ccc(OC)cc2)NC(=O)[C@H](Cc2ccc(O)cc2)NC(=O)[C@H](CC(N)=O)NC(=O)[C@H](Cc2c[nH]c3ccccc23)NC(=O)[C@H](C(C)C)NC(=O)[C@H](Cc2cccc(Cl)c2)N(C)C(=O)[C@H](C(C)C)NC(=O)[C@H](C)NC(=O)CSC[C@@H](C(=O)NCCOCCOCCOCCOCCC(N)=O)NC(=O)[C@H](Cc2ccc(O)cc2)N(C)C(=O)[C@H](Cc2ccc(O)cc2)NC(=O)[C@H](CCCNC(=N)N)NC(=O)[C@H](CCCNC(=N)N)NC(=O)[C@H]([C@@H](C)CC)NC1=O [compound 38], the Kd is reported as under 1 nM. Work on CC[C@H](C)[C@@H]1NC(=O)[C@H](Cc2ccc(OC)cc2)NC(=O)[C@H](Cc2ccc(O)cc2)NC(=O)[C@H](CC(N)=O)NC(=O)[C@H](Cc2cn(CC(=O)O)c3ccccc23)NC(=O)[C@H](C(C)C)NC(=O)[C@H](Cc2cccc(Cl)c2)N(C)C(=O)[C@H](C(C)C)NC(=O)[C@H](C)NC(=O)CSC[C@@H](C(=O)NCC(=O)N[C@H](CCC(=O)O)C(=O)N[C@H](CCC(=O)O)C(=O)N[C@H](CCC(=O)O)C(=O)N[C@H](CO)C(=O)N[C@H](CO)C(=O)N[C@@H](CCCCN=[N+]=[N-])C(N)=O)NC(=O)[C@H](Cc2ccc(O)cc2)N(C)C(=O)[C@H](Cc2ccccc2)NC(=O)[C@H](CCCNC(=N)N)NC(=O)[C@H](CCCNC(=N)N)NC(=O)[C@H](CCC(=O)O)NC1=O [compound 39] yielded a Kd of under 1 nM. With CC[C@H](C)[C@@H]1NC(=O)[C@H](Cc2ccc(OCC(=O)O)cc2)NC(=O)[C@H](Cc2ccc(O)cc2)NC(=O)[C@H](CC(N)=O)NC(=O)[C@H](Cc2cn(CC(=O)O)c3ccccc23)NC(=O)[C@H](C(C)C)NC(=O)[C@H](Cc2cccc(Cl)c2)N(C)C(=O)[C@H](C(C)C)NC(=O)[C@H](C)NC(=O)CSC[C@@H](C(=O)NCC(=O)N[C@H](CCC(=O)O)C(=O)N[C@H](CCC(=O)O)C(=O)N[C@H](CCC(=O)O)C(=O)N[C@H](CO)C(=O)N[C@H](CO)C(=O)N[C@@H](CCCCN=[N+]=[N-])C(N)=O)NC(=O)[C@H](Cc2ccc(O)cc2)N(C)C(=O)[C@H](Cc2ccccc2)NC(=O)[C@H](CCCNC(=N)N)NC(=O)[C@H](CCCNC(=N)N)NC(=O)[C@H]([C@@H](C)CC)NC1=O [compound 40] the Kd was under 1 nM. Molecule CC[C@H](C)[C@@H]1NC(=O)[C@H](Cc2ccc(OCC(=O)O)cc2)NC(=O)[C@H](Cc2ccc(O)cc2)NC(=O)[C@H](CC(N)=O)NC(=O)[C@H](Cc2c[nH]c3ccccc23)NC(=O)[C@H](C(C)C)NC(=O)[C@H](Cc2ccccc2)N(C)C(=O)[C@H](C(C)C)NC(=O)[C@H](C)NC(=O)CSC[C@@H](C(=O)NCC(=O)N[C@H](CCC(=O)O)C(=O)N[C@H](CCC(=O)O)C(=O)N[C@H](CCC(=O)O)C(=O)N[C@H](CO)C(=O)N[C@H](CO)C(=O)N[C@@H](CCCCN=[N+]=[N-])C(N)=O)NC(=O)[C@H](Cc2ccc(O)cc2)N(C)C(=O)[C@H](Cc2ccc(O)cc2)NC(=O)[C@H](CCCNC(=N)N)NC(=O)[C@H](CCCNC(=N)N)NC(=O)[C@H]([C@@H](C)CC)NC1=O [compound 41] has a Kd of 1 to 100 nM. CC[C@H](C)[C@@H]1NC(=O)[C@H](Cc2ccc(OCC(=O)O)cc2)NC(=O)[C@H](Cc2ccc(O)cc2)NC(=O)[C@H](CC(N)=O)NC(=O)[C@H](Cc2cn(CC(=O)O)c3ccccc23)NC(=O)[C@H](C(C)C)NC(=O)[C@H](Cc2ccccc2)N(C)C(=O)[C@H](C(C)C)NC(=O)[C@H](C)NC(=O)CSC[C@@H](C(=O)NCC(=O)N[C@H](CCC(=O)O)C(=O)N[C@H](CCC(=O)O)C(=O)N[C@H](CCC(=O)O)C(=O)N[C@H](CO)C(=O)N[C@H](CO)C(=O)N[C@@H](CCCCN=[N+]=[N-])C(N)=O)NC(=O)[C@H](Cc2ccc(O)cc2)N(C)C(=O)[C@H](Cc2ccc(O)cc2)NC(=O)[C@H](CCCNC(=N)N)NC(=O)[C@H](CCCNC(=N)N)NC(=O)[C@H]([C@@H](C)CC)NC1=O [compound 42] gave a Kd of 1 to 100 nM. CC[C@H](C)[C@@H]1NC(=O)[C@H](Cc2ccc(OC)cc2)NC(=O)[C@H](Cc2ccc(O)cc2)NC(=O)[C@H](CC(N)=O)NC(=O)[C@H](Cc2cn(CC(=O)O)c3ccccc23)NC(=O)[C@H](C(C)C)NC(=O)[C@H](Cc2cccc(Cl)c2)N(C)C(=O)[C@H](C(C)C)NC(=O)[C@H](C)NC(=O)CSC[C@@H](C(=O)NCCOCCOCCOCCOCCC(N)=O)NC(=O)[C@H](Cc2ccc(O)cc2)N(C)C(=O)[C@H](Cc2ccccc2)NC(=O)[C@H](CCCNC(=N)N)NC(=O)[C@H](CCCNC(=N)N)NC(=O)[C@H](CCC(=O)O)NC1=O [compound 43] gave a Kd of 1 to 100 nM. With CC[C@H](C)[C@@H]1NC(=O)[C@H](Cc2ccc(OCC(=O)O)cc2)NC(=O)[C@H](Cc2ccc(O)cc2)NC(=O)[C@H](CC(N)=O)NC(=O)[C@H](Cc2cn(CC(=O)O)c3ccccc23)NC(=O)[C@H](C(C)C)NC(=O)[C@H](Cc2cccc(Cl)c2)N(C)C(=O)[C@H](C(C)C)NC(=O)[C@H](C)NC(=O)CSC[C@@H](C(=O)NCCOCCOCCOCCOCCC(N)=O)NC(=O)[C@H](Cc2ccc(O)cc2)N(C)C(=O)[C@H](Cc2ccccc2)NC(=O)[C@H](CCCNC(=N)N)NC(=O)[C@H](CCCNC(=N)N)NC(=O)[C@H]([C@@H](C)CC)NC1=O [compound 44] the Kd was 1 to 100 nM. With CC[C@H](C)[C@@H]1NC(=O)[C@H](Cc2ccc(OCC(=O)O)cc2)NC(=O)[C@H](Cc2ccc(O)cc2)NC(=O)[C@H](CC(N)=O)NC(=O)[C@H](Cc2c[nH]c3ccccc23)NC(=O)[C@H](C(C)C)NC(=O)[C@H](Cc2ccccc2)N(C)C(=O)[C@H](C(C)C)NC(=O)[C@H](C)NC(=O)CSC[C@@H](C(=O)NCCOCCOCCOCCOCCC(N)=O)NC(=O)[C@H](Cc2ccc(O)cc2)N(C)C(=O)[C@H](Cc2ccc(O)cc2)NC(=O)[C@H](CCCNC(=N)N)NC(=O)[C@H](CCCNC(=N)N)NC(=O)[C@H]([C@@H](C)CC)NC1=O [compound 45] the Kd was 1 to 100 nM. CC[C@H](C)[C@@H]1NC(=O)[C@H](Cc2ccc(OCC(=O)O)cc2)NC(=O)[C@H](Cc2ccc(O)cc2)NC(=O)[C@H](CC(N)=O)NC(=O)[C@H](Cc2cn(CC(=O)O)c3ccccc23)NC(=O)[C@H](C(C)C)NC(=O)[C@H](Cc2ccccc2)N(C)C(=O)[C@H](C(C)C)NC(=O)[C@H](C)NC(=O)CSC[C@@H](C(=O)NCCOCCOCCOCCOCCC(N)=O)NC(=O)[C@H](Cc2ccc(O)cc2)N(C)C(=O)[C@H](Cc2ccc(O)cc2)NC(=O)[C@H](CCCNC(=N)N)NC(=O)[C@H](CCCNC(=N)N)NC(=O)[C@H]([C@@H](C)CC)NC1=O [compound 46] showed a Kd of 1 to 100 nM. CC[C@H](C)[C@@H]1NC(=O)[C@H](Cc2ccc(OCC(=O)O)cc2)NC(=O)[C@H](Cc2ccc(O)cc2)NC(=O)[C@H](CC(N)=O)NC(=O)[C@H](Cc2cn(CC(=O)O)c3ccccc23)NC(=O)[C@H](C(C)C)NC(=O)[C@H](Cc2cccc(Cl)c2)N(C)C(=O)[C@H](C(C)C)NC(=O)[C@H](C)NC(=O)CSC[C@@H](C(=O)NCC(=O)NCCOCCOCCOCCOCCOCCOCCOCCOCCC(=O)N[C@@H](CCCCN=[N+]=[N-])C(N)=O)NC(=O)[C@H](Cc2ccc(O)cc2)N(C)C(=O)[C@H](Cc2ccccc2)NC(=O)[C@H](CCCNC(=N)N)NC(=O)[C@H](CCCNC(=N)N)NC(=O)[C@H]([C@@H](C)CC)NC1=O [compound 47] gave a Kd of 1 to 100 nM.

— patent US20260116920A1, “HUMAN TRANSFERRIN RECEPTOR BINDING PEPTIDE” (PEPTIDREAM INC., priority 2021, published 2026)
